Structures are written as SMILES.

The test system of assay [1] is succinate dehydrogenase (SDH). Briefly: SDH activity in the retina of ONC-injured active TLGSs. The class given is in vivo, thirteen lined ground squirrel (TLGS). As to conditions: intraocular injection. The source says: (§1) It is known in the art that a key event in the LPS-induced macrophage activation is the over-production of mitochondrial ROS driven by the hyperpolarization of mitochondrial membrane potential and SDH-accelerated succinate oxidation (Mills et al., 2016). However, for the retina, it is challenging to perform live ROS measurement, because enucleation causes an acute ROS surge due to severing of the optic nerve. Thus, a method was developed to visualize in situ mitochondrial ROS production in thirteen lined ground squirrel (TLGS) retina with optic nerve crush (ONC), that used a mitochondrial ROS dye—MitoNeoD (Shchepinova et al., 2017). […] In active TLGS retina with partial ONC injuries, it was observed that above the optic nerve fiber/RGC layers there were cells decorated with bright MitoNeoOH (oxidized and fluorescent form of MitoNeoD) signals (arrows in FIG. 6D) overlapping with a mitochondrial protein marker (TOM20) (FIGS. 7A, 7B, and 7C). These cells were then confirmed to be mostly microglial cells (FIGS. 7D, 7E, and 7F). It was then confirmed that intraocular injection of DMM indeed lowered SDH activity in the retina of ONC-injured active TLGSs (FIG. 8B).

For another assay, the system named is mitochondrial ROS. The experiment in a line: In situ mitochondrial ROS production in retina after partial ONC (MitoNeoD dye). In kind it is in vivo, thirteen lined ground squirrel (TLGS). As to conditions: active TLGSs with ONC; intraocular injection.
Text: as §1

Assay [2] relates to microglia cell line (BV2). The experiment in a line: LPS-induced pro-inflammatory cytokine production in a microglia cell line. In kind it is cell-based, mouse.
Text: The direct effect of DMM on microglia was examined by conducting an in vitro experiment using a microglia cell line (BV2).
as §1

In assay [3] the test system is retina ganglion cells (RGCs). Briefly: Optic nerve crush (ONC), retina ganglion cell survival. The class given is in vivo, ground squirrel. The following applies: awake animals; injected into the eye before and after the ONC surgery. The source says:
Previous work has shown that succinate regulates macrophages, causing them to switch between pro-inflammatory and anti-inflammatory states (Mills, et al., (2016) Succinate Dehydrogenase Supports Metabolic Repurposing of Mitochondria to Drive Inflammatory Macrophages. Cell, […]; 457-470.e13). Thus, the inventors hypothesized that immune regulation due to reduced succinate levels may occur in the retina during hibernation, and that this may subsequently affect cellular response to neural injury. To test this hypothesis, optic nerve crush (ONC), a classic axonal injury experiment, was performed in awake and in hibernating ground squirrels. Retina ganglion cells (RGCs) appeared to survive ONC during hibernation (FIG. 4). Intriguingly, a key cellular response difference between awake and hibernating animals to ONC is microglial aggregation and activation, in line with the hypothesis that low succinate level during hibernation may prevent microglia from activation in response to injury. To further test this hypothesis, a second experiment was done in which dimethyl malonate (DMM), an inhibitor of SDH, was injected into the eye before and after the ONC surgery in awake animals to create a lower succinate condition, thereby mimicking hibernation. […] To further examine the role of microglia, microglia were pharmacologically eliminated before ONC surgery in awake animals. […]

Setting [4] is: cultured microglial cells, 100 ng/ml LPS + 1 mM or 10 mM DMM.
[5] abbreviates: mouse BV-2, concentration not given.

With `COC(=O)CC(=O)OC` [DMM, dimethyl malonate], the “SDH activity in the retina” value in assay [1] was “lowered”. In the assay with mitochondrial ROS, the “mitochondrial ROS production” value is on record as “significantly alleviated”. Besides, the “response of microglia to LPS” value in assay [2] (BV2, DMM 1 or 10 mM) is “significantly attenuated”. For the same compound, in assay [2] (setting [4]), the “production of IL1A” value was “significantly reduced” and the “production of MCP-1” value was “significantly reduced”. In assay [2] (setting [5]), the “LPS-induced production of IL-1α” value is listed as “effectively reduced”, the “LPS-induced production of IL-6” value was “effectively reduced” and the “LPS-induced production of MCP-1” value is “effectively reduced”. For the same compound, the “RGC survival after ONC” value in assay [3] is given as “significantly improved”.

For the origin of these results see US12011426B2, “Methods of metabolic regulation of mitochondria for treating neural injury and neurological disorders” (The USA, as represented by the Secretary, Dept. of Health …, priority 2018, dated 2024).
